According to US5240927A, “Benzo[β]thiophen-3-yl piperazines as antipsychotic agents” (Hoechst-Roussel Pharmaceuticals Incorporated, priority 1992, dated 1993):
Where two headings read alike, the source gives them in different places.

Test system: apomorphine-induced climbing
Assay: Climbing Mice Assay (block of apomorphine-induced climbing)
Type: in vivo, CK-1 male mice
Conditions: Mus musculus, ip, read-out: Antipsychotic Activity (Climbing Mice Assay) ED50
Procedure: The subject CK-1 male mice (23-27 grams) are group-housed under standard laboratory conditions. The mice are individually placed in wire mesh stick cages (4"×4" 10) and are allowed one hour for adaptation and exploration of the new environment.
For evaluation of climbing, three readings are taken at 10, 20 and 30 minutes after apomorphine administration according to the following scale: […]
Mice consistently climbing before the injection of apormorphine are discarded.
With full-developed apomorphine climbing, the animals are hanging onto the cage walls, rather motionless, over longer periods of time. By contrast, climbs due to mere motor stimulation usually last only a few seconds.
The climbing scores are individually totaled (maximal score; 6 per mouse over three readings) and the total score of the control group (vehicle intraperitioneally-apomorphine subcutaneously) is set to 100%.

`O=C(CCCN1CCC(O)(c2ccc(Cl)cc2)CC1)c1ccc(F)cc1` [Haloperidol] gave an ED50 of 0.33 mg/kg.
With `COc1cc(C(C)=O)ccc1OCCCN1CCN(c2csc3cc(F)ccc23)CC1` [1-[4-[3-[4-(6-Fluorobenzo[b]thiophen-3-yl)-1-piperazinyl]propoxy]-3-methoxyphenyl]ethanone] the ED50 (CK-1 male mice, compound i.p. 30 minutes prior to apomorphine 1.5 mg/kg s.c., readings at 10, 20 and 30 minutes, linear regression) was 1.42 mg/kg.
